Assay results reported in the NIST ThermoML archive (doi:10.1016/j.jct.2015.06.020).
Numbers after ± are expanded uncertainties.

What was measured:
[1] = Crystal; DTA
[2] = molar heat capacity at constant pressure; details: 101.33 kPa, Crystal, Large sample (1 g) DSC
[3] = Molar enthalpy of transition or fusion; details: Crystal; DSC

NC(=NO)c1nonc1N [4-amino-3-furazancarboxamidoxime]
Details | Molar enthalpy of transition or fusion [kcal/mol] | Normal melting temperature [°C]
[1] | – | 180.41 ± 0.86
[3] | 8.99 ± 0.213 | –

[2]
Details | molar heat capacity at constant pressure [J/K/mol]
283.15 K | 173.37 ± 3.5
288.15 K | 175.71 ± 3.5
293.15 K | 178.06 ± 3.6
298.15 K | 180.4 ± 3.6
303.15 K | 182.75 ± 3.7
308.15 K | 185.1 ± 3.7
313.15 K | 187.44 ± 3.8
318.15 K | 189.79 ± 3.8
323.15 K | 192.13 ± 3.8
328.15 K | 194.48 ± 3.9
333.15 K | 196.83 ± 3.9
338.15 K | 199.17 ± 4
343.15 K | 201.52 ± 4
348.15 K | 203.86 ± 4.1
353.15 K | 206.21 ± 4.1
